Results taken from ChEMBL document CHEMBL5352419, “Design, synthesis, and biological evaluation of tetrahydroquinoline amphiphiles as membrane-targeting antimicrobials against pathogenic bacteria and fungi” (Eur J Med Chem, 2022).
In brackets after ≈: the same amount, converted by molar mass.

How the values were obtained:
[1] = test system: Candida albicans; experiment: Antimicrobial activity against Candida albicans CMCC98001 assessed as fungal growth inhibition incubated for 48 hrs by Sabouraud Dextrose broth based dilution assay; type: functional
[2] = test system: Staphylococcus aureus; experiment: Antimicrobial activity against methicillin-resistant Staphylococcus aureus NCTC10442 assessed as bacterial growth inhibition incubated for 24 hrs by Muller Hinton broth based dilution assay; type: functional
[3] = test system: Staphylococcus aureus; experiment: Antimicrobial activity against Staphylococcus aureus ATCC29213 assessed as bacterial growth inhibition incubated for 24 hrs by Muller Hinton broth based dilution assay; type: functional
[4] = Hemolytic activity in rabbit RBC incubated for 1 hr by absorbance based microplate reader assay; type: toxicity, cell-based, Oryctolagus cuniculus, Erythrocyte; conditions: rabbit red blood cells (erythrocytes)
[5] = test system: Staphylococcus aureus; experiment: Antimicrobial activity against methicillin-resistant Staphylococcus aureus N315 assessed as bacterial growth inhibition incubated for 24 hrs by Muller Hinton broth based dilution assay; type: functional
[6] = test system: Candida albicans; experiment: Antimicrobial activity against Candida albicans ATCC10231 assessed as fungal growth inhibition incubated for 48 hrs by Sabouraud Dextrose broth based dilution assay; type: functional
[7] = test system: Escherichia coli; experiment: Antimicrobial activity against Escherichia coli ATCC25922 assessed as bacterial growth inhibition incubated for 24 hrs by Muller Hinton broth based dilution assay; type: functional

Row | Structure (SMILES) | MIC [1] | MIC [2] | MIC [3] | HC50 at 1 h [4] | MIC [5] | MIC [6] | MIC [7]
1 | CC(C)=CCN1CCCc2cc(OCCCCN3CCSCC3)ccc21 | > 50 µg/mL | > 50 µg/mL | > 50 µg/mL | > 200 µg/mL | > 50 µg/mL | > 50 µg/mL | > 50 µg/mL
2 | C[C@@H]1C/C=C/C=C/C=C/C=C/[C@H](O[C@@H]2O[C@H](C)[C@@H](O)[C@H](N)[C@@H]2O)C[C@@H]2O[C@](O)(C[C@@H](O)C[C@H]3O[C@@H]3/C=C/C(=O)O1)C[C@H](O)[C@H]2C(=O)O [NATAMYCIN] | 6.25 µg/mL (≈ 9.39 µM) |  |  |  |  | 6.25 µg/mL (≈ 9.39 µM) | 
3 | Oc1ccc2c(c1)CCCN2CCCC(F)(F)F | > 50 µg/mL | > 50 µg/mL | > 50 µg/mL | > 200 µg/mL | > 50 µg/mL | > 50 µg/mL | > 50 µg/mL
4 | CCCN(CCC)CCCCOc1ccc2c(c1)CCCN2CC=C(C)C | > 50 µg/mL | 50 µg/mL (≈ 134 µM) | 25 µg/mL (≈ 67.1 µM) | > 200 µg/mL | 25 µg/mL (≈ 67.1 µM) | > 50 µg/mL | > 50 µg/mL
5 | CCN(CC)CCCCOc1ccc2c(c1)CCCN2CC=C(C)C | > 50 µg/mL | > 50 µg/mL | > 50 µg/mL | > 200 µg/mL | > 50 µg/mL | > 50 µg/mL | > 50 µg/mL
6 | CCCCCN1CCCc2cc(OCC(=O)OCC)ccc21 | > 50 µg/mL | > 50 µg/mL | > 50 µg/mL | > 200 µg/mL | > 50 µg/mL | > 50 µg/mL | > 50 µg/mL
7 | CCCCCCCN1CCCc2cc(OCCCCCCCCBr)ccc21 | > 50 µg/mL | > 50 µg/mL | > 50 µg/mL | > 200 µg/mL | > 50 µg/mL | > 50 µg/mL | > 50 µg/mL
8 | CCCCCCCCCN1CCCc2cc(OCCCCCCCCNC(=N)N)ccc21 | 1.56 µg/mL (≈ 3.51 µM) | 3.12 µg/mL (≈ 7.03 µM) | 3.12 µg/mL (≈ 7.03 µM) | > 200 µg/mL | 3.12 µg/mL (≈ 7.03 µM) | 0.78 µg/mL (≈ 1.75 µM) | 25 µg/mL (≈ 56.2 µM)
9 | CC(C)=CCN1CCCc2cc(OCCCCN3CCCC3)ccc21 | > 50 µg/mL | > 50 µg/mL | > 50 µg/mL | > 200 µg/mL | > 50 µg/mL | > 50 µg/mL | > 50 µg/mL
10 | CC(C)=CCC/C(C)=C/CN1CCCc2cc(OCCCCCCCCBr)ccc21 | 12.5 µg/mL (≈ 26.2 µM) | 6.25 µg/mL (≈ 13.1 µM) | 6.25 µg/mL (≈ 13.1 µM) | > 200 µg/mL | 6.25 µg/mL (≈ 13.1 µM) | 12.5 µg/mL (≈ 26.2 µM) | 25 µg/mL (≈ 52.5 µM)
11 | CCCCCN1CCCc2cc(O)ccc21 | > 50 µg/mL | 25 µg/mL (≈ 114 µM) | 50 µg/mL (≈ 228 µM) | > 200 µg/mL | 25 µg/mL (≈ 114 µM) | > 50 µg/mL | > 50 µg/mL
12 | CC(C)=CCN1CCCc2cc(OCCCCNC(=N)N)ccc21 | > 50 µg/mL | 3.12 µg/mL (≈ 9.46 µM) | 3.12 µg/mL (≈ 9.46 µM) | > 200 µg/mL | 1.56 µg/mL (≈ 4.72 µM) | > 50 µg/mL | 25 µg/mL (≈ 75.6 µM)
13 | CC(C)=CCN1CCCc2cc(OCCCBr)ccc21 | 50 µg/mL (≈ 148 µM) | 25 µg/mL (≈ 73.9 µM) | 25 µg/mL (≈ 73.9 µM) | > 200 µg/mL | 25 µg/mL (≈ 73.9 µM) | 50 µg/mL (≈ 148 µM) | > 50 µg/mL
14 | CCCCCN1CCCc2cc(OCCCCBr)ccc21 | 50 µg/mL (≈ 141 µM) | 25 µg/mL (≈ 70.6 µM) | 25 µg/mL (≈ 70.6 µM) | > 200 µg/mL | 25 µg/mL (≈ 70.6 µM) | 50 µg/mL (≈ 141 µM) | > 50 µg/mL
15 | CCCCCCCCCN1CCCc2cc(O)ccc21 | 50 µg/mL (≈ 182 µM) | 12.5 µg/mL (≈ 45.4 µM) | 12.5 µg/mL (≈ 45.4 µM) | > 200 µg/mL | 12.5 µg/mL (≈ 45.4 µM) | 50 µg/mL (≈ 182 µM) | > 50 µg/mL
16 | N=C(N)NCCCCOc1ccc2c(c1)CCCN2CCCC(F)(F)F | > 50 µg/mL | 6.25 µg/mL (≈ 16.8 µM) | 6.25 µg/mL (≈ 16.8 µM) | > 200 µg/mL | 6.25 µg/mL (≈ 16.8 µM) | > 50 µg/mL | 25 µg/mL (≈ 67.1 µM)
17 | CCCCCCCN1CCCc2cc(OCC(=O)OCC)ccc21 | > 50 µg/mL | > 50 µg/mL | > 50 µg/mL | > 200 µg/mL | > 50 µg/mL | > 50 µg/mL | > 50 µg/mL
18 | CC(C)=CCC/C(C)=C/CN1CCCc2cc(OCCCCBr)ccc21 | 50 µg/mL (≈ 119 µM) | 25 µg/mL (≈ 59.5 µM) | 25 µg/mL (≈ 59.5 µM) | > 200 µg/mL | 25 µg/mL (≈ 59.5 µM) | > 50 µg/mL | > 50 µg/mL
19 | CCCN1CCCc2cc(OCCCCNC(=N)N)ccc21 | > 50 µg/mL | 12.5 µg/mL (≈ 41.1 µM) | 12.5 µg/mL (≈ 41.1 µM) | > 200 µg/mL | 6.25 µg/mL (≈ 20.5 µM) | > 50 µg/mL | > 50 µg/mL
20 | FC(F)(F)CCCN1CCCc2cc(OCCCCBr)ccc21 | > 50 µg/mL | 12.5 µg/mL (≈ 31.7 µM) | 25 µg/mL (≈ 63.4 µM) | > 200 µg/mL | 25 µg/mL (≈ 63.4 µM) | > 50 µg/mL | > 50 µg/mL
21 | CCCCCCCCCN1CCCc2cc(OCCCCCCCCBr)ccc21 | > 50 µg/mL | 50 µg/mL (≈ 107 µM) | 25 µg/mL (≈ 53.6 µM) | > 200 µg/mL | 25 µg/mL (≈ 53.6 µM) | > 50 µg/mL | > 50 µg/mL
